Test results published in patent US11136329B2, “JAK inhibitors” (Vimalan Biosciences, Inc., priority 2019, dated 2021).

Columns and labels:
Format in all cases: biochemical
JAK3 = JAK3 (Homo sapiens (Human), UniProt P52333); experiment: JAK/TYK2 assay (Kinase Glo luminescence), JAK3; settings: 1.5 nM enzyme, 2 uM ATP, 4 uM pEY, 1 hr
Method: (§1) 10 mM test compound stock or 1 mM control compound stock (tofocitinib, ruxolitinib or staurosporine) in DMSO was diluted to 0.4 mM in DMSO. A 3-fold series dilution was then performed in DMSO to generate 10 different compound concentrations. The assay was carried out in 384-well white plate. 0.5 uL of 40× compound DMSO solution at different concentrations was mixed with 10 uL 2× enzyme prepared in reaction buffer (20 mM HEPES, 10 mM MgCl2, 0.01% Tween, 1 mM DTT, pH 7.5). 10 uL 2× substrate mixture prepared in reaction buffer was then added to start the reaction. A short spin was done to settle down all solutions to the bottom of the plate. Final concentrations of test compound in the reaction mixture were 10000, 3333, 1111, 370, 123, 41.2, 13.7, 4.57, 1.52and 0.51 nM. Concentrations of control compound were ten times less. Enzymatic reaction was conducted at 25° C. for 1-2 hours. 10 uL of Kinase Glo Reagents was added to stop the reaction and generate the luminescent signal which was measured using Envision. Luminescence signal was inversely related to kinase activity. […] The mixture without any compound was the positive control.

JAK1 = JAK1 (Homo sapiens (Human), UniProt P23458); experiment: JAK/TYK2 assay (Kinase Glo luminescence), JAK1; settings: 7.5 nM enzyme, 2 uM ATP, 30 uM IRS-1, 1 hr
Method: as §1

TYK2 = TYK2 (Homo sapiens (Human), UniProt P29597); experiment: JAK/TYK2 assay (Kinase Glo luminescence), TYK2; settings: 9 nM enzyme, 2 uM ATP, 30 uM IRS-1, 1 hr
Method: as §1

JAK2 = JAK2 (Homo sapiens (Human), UniProt O60674); experiment: JAK/TYK2 assay (Kinase Glo luminescence), JAK2; settings: 0.8 nM enzyme, 2 uM ATP, 4 uM pEY, 1 hr
Method: as §1

JAK1, sequence (P23458 whole entry, species assumed): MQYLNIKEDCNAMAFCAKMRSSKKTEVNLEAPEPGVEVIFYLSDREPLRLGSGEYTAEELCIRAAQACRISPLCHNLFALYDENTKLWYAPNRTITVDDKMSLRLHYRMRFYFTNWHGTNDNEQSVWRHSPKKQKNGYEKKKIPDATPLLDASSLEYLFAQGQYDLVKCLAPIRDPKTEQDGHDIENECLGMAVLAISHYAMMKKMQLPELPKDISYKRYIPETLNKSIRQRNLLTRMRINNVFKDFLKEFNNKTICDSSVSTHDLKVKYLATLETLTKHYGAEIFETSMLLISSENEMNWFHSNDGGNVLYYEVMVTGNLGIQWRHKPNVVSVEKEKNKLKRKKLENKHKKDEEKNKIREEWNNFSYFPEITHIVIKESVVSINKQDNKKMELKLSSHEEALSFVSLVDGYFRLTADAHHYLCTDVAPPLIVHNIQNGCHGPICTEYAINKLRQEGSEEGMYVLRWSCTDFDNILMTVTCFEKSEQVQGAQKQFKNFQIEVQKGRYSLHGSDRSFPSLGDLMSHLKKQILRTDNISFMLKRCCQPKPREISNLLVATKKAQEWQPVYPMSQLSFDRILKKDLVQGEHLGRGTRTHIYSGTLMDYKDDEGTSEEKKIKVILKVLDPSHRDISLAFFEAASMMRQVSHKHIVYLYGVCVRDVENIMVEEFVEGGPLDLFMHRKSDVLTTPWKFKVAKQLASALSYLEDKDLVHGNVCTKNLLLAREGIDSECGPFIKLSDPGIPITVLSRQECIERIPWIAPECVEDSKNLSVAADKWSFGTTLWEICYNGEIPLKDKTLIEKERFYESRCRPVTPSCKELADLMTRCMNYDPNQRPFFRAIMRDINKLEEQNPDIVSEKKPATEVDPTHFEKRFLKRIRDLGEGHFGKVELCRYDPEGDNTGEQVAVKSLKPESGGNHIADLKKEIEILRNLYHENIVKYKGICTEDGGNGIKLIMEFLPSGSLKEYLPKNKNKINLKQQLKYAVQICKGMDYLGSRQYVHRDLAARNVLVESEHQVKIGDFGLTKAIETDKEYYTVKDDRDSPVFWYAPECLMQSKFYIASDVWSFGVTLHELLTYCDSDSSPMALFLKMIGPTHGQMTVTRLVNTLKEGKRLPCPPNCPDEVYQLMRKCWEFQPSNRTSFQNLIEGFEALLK
JAK3, sequence (P52333 whole entry, species assumed): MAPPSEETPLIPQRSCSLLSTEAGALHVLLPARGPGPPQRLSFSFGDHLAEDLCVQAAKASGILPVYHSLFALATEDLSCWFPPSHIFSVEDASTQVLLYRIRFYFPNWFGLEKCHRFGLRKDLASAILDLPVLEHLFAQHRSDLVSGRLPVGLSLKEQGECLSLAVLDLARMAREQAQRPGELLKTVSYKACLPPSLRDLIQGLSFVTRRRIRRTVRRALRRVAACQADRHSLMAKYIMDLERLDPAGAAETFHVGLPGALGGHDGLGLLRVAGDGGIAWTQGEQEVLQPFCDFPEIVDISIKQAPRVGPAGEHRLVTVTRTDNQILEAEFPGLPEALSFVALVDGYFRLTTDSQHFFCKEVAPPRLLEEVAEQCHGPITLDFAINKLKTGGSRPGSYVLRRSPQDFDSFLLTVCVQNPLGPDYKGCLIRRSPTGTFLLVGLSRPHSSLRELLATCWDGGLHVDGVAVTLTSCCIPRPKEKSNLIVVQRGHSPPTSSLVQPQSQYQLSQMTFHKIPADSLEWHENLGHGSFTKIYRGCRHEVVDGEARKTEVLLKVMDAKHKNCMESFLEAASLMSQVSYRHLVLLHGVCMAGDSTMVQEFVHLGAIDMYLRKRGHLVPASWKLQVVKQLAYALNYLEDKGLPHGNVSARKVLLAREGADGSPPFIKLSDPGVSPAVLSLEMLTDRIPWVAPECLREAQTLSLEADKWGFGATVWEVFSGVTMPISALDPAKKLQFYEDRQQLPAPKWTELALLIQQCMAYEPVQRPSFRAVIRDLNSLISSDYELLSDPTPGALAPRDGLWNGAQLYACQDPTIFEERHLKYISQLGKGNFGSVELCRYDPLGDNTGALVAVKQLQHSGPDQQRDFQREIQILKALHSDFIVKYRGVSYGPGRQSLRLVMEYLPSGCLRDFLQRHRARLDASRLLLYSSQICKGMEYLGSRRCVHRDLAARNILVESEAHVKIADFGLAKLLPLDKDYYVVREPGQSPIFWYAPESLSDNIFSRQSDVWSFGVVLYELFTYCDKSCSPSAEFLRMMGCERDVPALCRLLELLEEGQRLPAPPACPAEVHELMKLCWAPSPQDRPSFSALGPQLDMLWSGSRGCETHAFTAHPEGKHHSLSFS
JAK2, sequence (O60674 whole entry, species assumed): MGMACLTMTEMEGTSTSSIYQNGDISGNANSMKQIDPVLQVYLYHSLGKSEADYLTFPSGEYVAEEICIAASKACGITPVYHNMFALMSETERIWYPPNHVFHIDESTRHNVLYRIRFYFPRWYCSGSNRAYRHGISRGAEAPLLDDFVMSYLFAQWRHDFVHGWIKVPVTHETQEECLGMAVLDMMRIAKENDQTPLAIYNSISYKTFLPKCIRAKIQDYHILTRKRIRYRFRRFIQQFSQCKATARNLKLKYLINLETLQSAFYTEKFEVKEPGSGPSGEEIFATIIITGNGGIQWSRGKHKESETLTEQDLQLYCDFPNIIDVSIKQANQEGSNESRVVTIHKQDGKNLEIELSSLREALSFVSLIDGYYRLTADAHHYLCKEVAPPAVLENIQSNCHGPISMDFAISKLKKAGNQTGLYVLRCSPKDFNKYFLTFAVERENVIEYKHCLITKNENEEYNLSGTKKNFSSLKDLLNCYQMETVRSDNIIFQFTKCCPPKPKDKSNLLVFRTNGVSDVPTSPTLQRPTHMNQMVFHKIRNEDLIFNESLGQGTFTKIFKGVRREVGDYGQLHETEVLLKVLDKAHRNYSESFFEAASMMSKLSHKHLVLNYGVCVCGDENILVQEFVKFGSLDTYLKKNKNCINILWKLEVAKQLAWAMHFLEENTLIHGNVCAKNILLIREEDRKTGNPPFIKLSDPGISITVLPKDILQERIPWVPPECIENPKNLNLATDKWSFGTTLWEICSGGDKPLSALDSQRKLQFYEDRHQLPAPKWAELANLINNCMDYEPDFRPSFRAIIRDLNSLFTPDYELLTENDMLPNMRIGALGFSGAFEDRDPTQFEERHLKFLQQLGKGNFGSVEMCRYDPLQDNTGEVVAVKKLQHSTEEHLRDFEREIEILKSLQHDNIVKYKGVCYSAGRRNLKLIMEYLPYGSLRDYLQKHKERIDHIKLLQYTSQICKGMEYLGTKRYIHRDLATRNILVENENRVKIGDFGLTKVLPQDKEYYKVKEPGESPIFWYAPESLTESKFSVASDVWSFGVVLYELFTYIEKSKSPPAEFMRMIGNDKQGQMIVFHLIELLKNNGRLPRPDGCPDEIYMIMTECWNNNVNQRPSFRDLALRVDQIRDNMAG
TYK2, sequence (P29597 whole entry, species assumed): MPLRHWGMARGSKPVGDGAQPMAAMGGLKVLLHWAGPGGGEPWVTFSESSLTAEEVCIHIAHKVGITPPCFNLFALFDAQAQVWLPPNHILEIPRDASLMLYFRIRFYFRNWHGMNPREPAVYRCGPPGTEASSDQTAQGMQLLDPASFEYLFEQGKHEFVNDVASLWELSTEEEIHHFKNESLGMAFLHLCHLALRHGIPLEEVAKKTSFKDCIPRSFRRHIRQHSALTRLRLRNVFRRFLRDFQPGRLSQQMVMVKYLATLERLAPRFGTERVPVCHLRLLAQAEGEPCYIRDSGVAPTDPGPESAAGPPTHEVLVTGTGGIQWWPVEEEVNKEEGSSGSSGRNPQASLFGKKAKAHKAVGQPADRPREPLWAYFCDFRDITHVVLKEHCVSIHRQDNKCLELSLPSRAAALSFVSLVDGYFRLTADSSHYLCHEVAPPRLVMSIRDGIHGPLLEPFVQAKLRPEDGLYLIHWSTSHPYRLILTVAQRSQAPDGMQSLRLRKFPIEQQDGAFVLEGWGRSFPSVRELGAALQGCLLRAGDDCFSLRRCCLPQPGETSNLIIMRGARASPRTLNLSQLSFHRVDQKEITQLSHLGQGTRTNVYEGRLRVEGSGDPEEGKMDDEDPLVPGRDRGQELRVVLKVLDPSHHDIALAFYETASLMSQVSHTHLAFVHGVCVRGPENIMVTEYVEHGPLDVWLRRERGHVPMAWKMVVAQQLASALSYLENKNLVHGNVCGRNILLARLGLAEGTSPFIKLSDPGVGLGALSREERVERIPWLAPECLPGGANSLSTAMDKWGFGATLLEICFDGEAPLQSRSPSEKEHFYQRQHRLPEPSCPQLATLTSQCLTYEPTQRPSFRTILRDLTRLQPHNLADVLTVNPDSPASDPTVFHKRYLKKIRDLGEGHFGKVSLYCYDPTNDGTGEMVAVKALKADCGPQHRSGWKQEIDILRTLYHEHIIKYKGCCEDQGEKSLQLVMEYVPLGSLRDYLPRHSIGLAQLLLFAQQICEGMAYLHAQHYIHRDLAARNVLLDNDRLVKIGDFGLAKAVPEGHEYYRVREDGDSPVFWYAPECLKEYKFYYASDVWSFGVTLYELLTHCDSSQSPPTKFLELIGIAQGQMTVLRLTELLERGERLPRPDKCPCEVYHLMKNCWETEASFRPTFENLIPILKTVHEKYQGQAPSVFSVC

Compound	IC50 (JAK3)	IC50 (JAK1)	IC50 (TYK2)	IC50 (JAK2)
CC[C@H](Cn1ccc2cnc(Nc3cnn(CC(=O)OC4COC4)c3)nc21)C(C)C [Compound 140, oxetan-3-yl (S)-2-(4-((7-(2-ethyl-3-methylbutyl)-7H-pyrrolo[2,3-d]pyrimidin-2-yl)amino)-1H-pyrazol-1-yl)acetate]	< 100 nM	< 100 nM	< 100 nM	< 100 nM
CCOC(=O)Cn1cc(Nc2ncc3ccn(CC(CC)CC#N)c3n2)cn1 (stereo not shown) [Compound 70, ethyl 2-(4-((7-(2-(cyanomethyl)butyl)-7H-pyrrolo[2,3-d]pyrimidin-2-yl)amino)-1H-pyrazol-1-yl)acetate]	< 100 nM	< 100 nM	< 100 nM	< 100 nM
CC[C@@H](Cn1ccc2cnc(Nc3cnn(CC(=O)OC(C)C)c3)nc21)C(C)C [Compound 132, isopropyl (R)-2-(4-((7-(2-ethyl-3-methylbutyl)-7H-pyrrolo[2,3-d]pyrimidin-2-yl)amino)-1H-pyrazol-1-yl)acetate]	< 100 nM	< 100 nM	< 100 nM	< 100 nM
CC(C)C(Cn1ccc2cnc(Nc3cnn(CC(=O)O)c3)nc21)C(C)C [Compound 87, 2-(4-((7-(2-isopropyl-3-methylbutyl)-7H-pyrrolo[2,3-d]pyrimidin-2-yl)amino)-1H-pyrazol-1-yl)acetic acid]	< 100 nM	< 100 nM	< 100 nM	< 100 nM
CC[C@H](Cn1ccc2cnc(Nc3cnn(CC(=O)O[C@H]4CCN(C)C4)c3)nc21)C(C)C [Compound 138, (S)-1-methylpyrrolidin-3-yl 2-(4-((7-((S)-2-ethyl-3-methylbutyl)-7H-pyrrolo[2,3-d]pyrimidin-2-yl)amino)-1H-pyrazol-1-yl)acetate]	< 100 nM	< 100 nM	< 100 nM	< 100 nM
CC[C@H](Cn1ccc2cnc(Nc3cnn(C4CC(C)(C)OC4=O)c3)nc21)C(C)C (stereo partly drawn) [Compound 144, 3-(4-((7-((S)-2-ethyl-3-methylbutyl)-7H-pyrrolo[2,3-d]pyrimidin-2-yl)amino)-1H-pyrazol-1-yl)-5,5-dimethyldihydrofuran-2(3H)-one]	< 100 nM	< 100 nM	< 100 nM	< 100 nM
CC[C@H](Cn1ccc2cnc(Nc3cnn(CC(=O)O)c3)nc21)C(C)C [Compound 104, (S)-2-(4-((7-(2-ethyl-3-methylbutyl)-7H-pyrroIo[2,3-d]pyrimidin-2-yl)amino)-1H-pyrazol-1-yl)acetic acid]	< 100 nM	< 100 nM	< 100 nM	< 100 nM
CCOC(=O)CCn1cc(Nc2ncc3ccn(Cc4ccsc4)c3n2)cn1 [Compound 16, ethyl 3-(4-((7-(thiophen-3-ylmethyl)-7H-pyrrolo[2,3-d]pyrimidin-2-yl)amino)-1H-pyrazol-1-yl)propanoate]	< 100 nM	100 to 1000 nM	< 100 nM	< 100 nM
CC[C@H](Cn1ccc2cnc(Nc3cnn(C(CCO)C(=O)O)c3)nc21)C(C)C (stereo partly drawn) [Compound 136, 2-(4-((7-((S)-2-ethyl-3-methylbutyl)-7H-pyrrolo[2,3-d]pyrimidin-2-yl)amino)-1H-pyrazol-1-yl)-4-hydroxybutanoic acid]	< 100 nM	< 100 nM	< 100 nM	< 100 nM
CCOC(=O)Cn1cc(Nc2ncc3ccn(CC4CCC(C)CC4)c3n2)cn1 (stereo not shown) [Compound 46, ethyl 2-(4-((7-((4-methylcyclohexyl)methyl)-7H-pyrrolo[2,3-d]pyrimidin-2-yl)amino)-1H-pyrazol-1-yl)acetate]	< 100 nM	< 100 nM	< 100 nM	< 100 nM
CCC(Cn1ccc2cnc(Nc3cnn(CC(=O)OC(C)C)c3)nc21)C(C)C (stereo not shown) [Compound 83, isopropyl 2-(4-((7-(2-ethyl-3-methylbutyl)-7H-pyrrolo[2,3-d]pyrimidin-2-yl)amino)-1H-pyrazol-1-yl)acetate]	< 100 nM	< 100 nM	< 100 nM	< 100 nM
CCOC(=O)Cn1cc(Nc2ncc3ccn(C[C@H]4CC[C@@H](O)CC4)c3n2)cn1 [Compound 52, ethyl 2-(4-((7-(((1s,4s)-4-hydroxycyclohexyl)methyl)-7H-pyrrolo[2,3-d]pyrimidin-2-yl)amino)-1H-pyrazol-1-yl)acetate]	< 100 nM	100 to 1000 nM	< 100 nM	< 100 nM
CCC(Cn1ccc2cnc(Nc3cnn(CCC(=O)O)c3)nc21)C(C)C (stereo not shown) [Compound 31, 3-(4-((7-(2-ethyl-3-methylbutyl)-7H-pyrrolo[2,3-d]pyrimidin-2-yl)amino)-1H-pyrazol-1-yl)propanoic acid]	< 100 nM	< 100 nM	< 100 nM	< 100 nM
CCOC(=O)Cn1cc(Nc2ncc3ccn(CC4CCCCC4(F)F)c3n2)cn1 (stereo not shown) [Compound 35, ethyl 2-(4-((7-((2,2-difluorocyclohexyl)methyl)-7H-pyrrolo[2,3-d]pyrimidin-2-yl)amino)-1H-pyrazol-1-yl)acetate]	< 100 nM	< 100 nM	< 100 nM	< 100 nM
CCC(Cn1ccc2cnc(Nc3cnn(CC(=O)OC[C@H](C)O)c3)nc21)C(C)C (stereo partly drawn) [Compound 112, (S)-2-hydroxypropyl 2-(4-((7-(2-ethyl-3-methylbutyl)-7H-pyrrolo[2,3-d]pyrimidin-2-yl)amino)-1H-pyrazol-1-yl)acetate]	< 100 nM	< 100 nM	< 100 nM	< 100 nM
CCOC(=O)Cn1cc(Nc2ncc3ccn(CC(C(C)C)C(C)C)c3n2)cn1 [Compound 50, ethyl 2-(4-((7-(2-isopropyl-3-methylbutyl)-7H-pyrrolo[2,3-d]pyrimidin-2-yl)amino)-1H-pyrazol-1-yl)acetate]	< 100 nM	< 100 nM	< 100 nM	< 100 nM

Further lines, results first:

IC50 (JAK3)	IC50 (JAK1)	IC50 (TYK2)	IC50 (JAK2)	Compound
< 100 nM	< 100 nM	< 100 nM	< 100 nM	CCC(CC)Cn1ccc2cnc(Nc3cnn(CC(=O)OCCO)c3)nc21 [Compound 90, 2-hydroxyethyl 2-(4-((7-(2-ethylbutyl)-7H-pyrrolo[2,3-d]pyrimidin-2-yl)amino)-1H-pyrazol-1-yl)acetate]
< 100 nM	100 to 1000 nM	< 100 nM	100 to 1000 nM	CCOC(=O)Cn1cc(Nc2ncc3ccn(CC(C)(C)C)c3n2)cn1 [Compound 20, ethyl 2-(4-((7-neopentyl-7H-pyrrolo[2,3-d]pyrimidin-2-yl)amino)-1H-pyrazol-1-yl)acetate]
< 100 nM	< 100 nM	< 100 nM	< 100 nM	CC[C@H](Cn1ccc2cnc(Nc3cnn(CC(=O)OC(C)C)c3)nc21)C(C)C [Compound 134, isopropyl (S)-2-(4-((7-(2-ethyl-3-methylbutyl)-7H-pyrrolo[2,3-d]pyrimidin-2-yl)amino)-1H-pyrazol-1-yl)acetate]
< 100 nM	< 100 nM	< 100 nM	< 100 nM	CCOC(=O)Cn1cc(Nc2ncc3ccn(C[C@H]4CCC[C@@H](OC)C4)c3n2)cn1 [Compound 130, ethyl 2-(4-((7-(((1S,3R)-3-methoxycyclohexyl)methyl)-7H-pyrrolo[2,3-d]pyrimidin-2-yl)amino)-1H-pyrazol-1-yl)acetate]
< 100 nM	< 100 nM	< 100 nM	< 100 nM	CCOC(=O)Cn1cc(Nc2ncc3ccn(CC4CCCC(C)C4)c3n2)cn1 (stereo not shown) [Compound 45, ethyl 2-(4-((7-((3-methylcyclohexyl)methyl)-7H-pyrrolo[2,3-d]pyrimidin-2-yl)amino)-1H-pyrazol-1-yl)acetate]
< 100 nM	< 100 nM	< 100 nM	< 100 nM	CC[C@@H](Cn1ccc2cnc(Nc3cnn(C(C)C(=O)O)c3)nc21)C(C)C (stereo partly drawn) [Compound 114, 2-(4-((7-((R)-2-ethyl-3-methylbutyl)-7H-pyrrolo[2,3-d]pyrimidin-2-yl)amino)-1H-pyrazol-1-yl)propanoic acid]
< 100 nM	< 100 nM	< 100 nM	< 100 nM	CCOC(=O)Cn1cc(Nc2ncc3ccn(CC(CC)C(C)C)c3n2)cn1 (stereo not shown) [Compound 49, ethyl 2-(4-((7-(2-ethyl-3-methylbutyl)-7H-pyrrolo[2,3-d]pyrimidin-2-yl)amino)-1H-pyrazol-1-yl)acetate]
< 100 nM	< 100 nM	< 100 nM	< 100 nM	C=CC[C@H](Cn1ccc2cnc(Nc3cnn(CC(=O)OC(C)C)c3)nc21)C(C)C [Compound 102, isopropyl (S)-2-(4-((7-(2-isopropylpent-4-en-1-yl)-7H-pyrrolo[2,3-d]pyrimidin-2-yl)amino)-1H-pyrazol-1-yl)acetate]
< 100 nM	< 100 nM	< 100 nM	< 100 nM	CCC(Cn1ccc2cnc(Nc3cnn(CC(=O)OCC(O)CO)c3)nc21)C(C)C (stereo not shown) [Compound 111, 2,3-dihydroxypropyl 2-(4-((7-(2-ethyl-3-methylbutyl)-7H-pyrrolo[2,3-d]pyrimidin-2-yl)amino)-1H-pyrazol-1-yl)acetate]
